Assay [1] concerns adult skin fibroblasts. Kind of assay: myofibroblast transformation assay, Western blot of α-SMA expression. It is filed as cell-based, human. To be noted: co-treatment with TGF-β1 2 ng/ml for 96 hrs in serum-free medium; EP2 agonist 100 nM, EP4 agonist 10 nM. How it is done:
(§1) To perform the myofibroblast transformation assay, adult skin fibroblasts were cultured until 70% confluent, washed with phosphate buffered saline (PBS), and then starved in serum-free medium for 48 hours. Post starvation, cells were treated with TGF-β1 at 2 ng/ml alone or in combination with Compound V—100 nM, Compound II—10 nM or vehicle for 96 hrs in a fresh serum-free medium (TGF-beta1 from Sigma Aldrich, USA). Cell lysates were collected at the end of the study and Western blot was performed to monitor the expression of alpha-smooth muscle actin (α-SMA), the marker of myofibroblasts.
Cells were washed with cold PBS three times and lysed with a lysis buffer containing phosphatase inhibitors and proteinase inhibitors (Invitrogen, San Diego, Calif.). Protein level in lysates was quantified (bicinchoninic acid (BCA) protein assay kit, Pierce, USA). For Western blot, an equal amount of protein was applied at each lane, and subjected to electrophoresis. […] Fluorescence signals associated with target proteins were detected upon exposure to fluorescence-sensitive films (Cell signaling Technology, Inc., Berverly, Mass.). […] Beta-actin, a house-keeping gene, was also quantified on the same membrane as an internal control for loading amount. […]
Background: In western blotting, separated proteins are transferred to a membrane and probed.

Assay [2] has as its system adult skin fibroblasts. Kind of assay: myofibroblast transformation, anti-α-SMA immunocytochemistry / morphology. It is filed as cell-based, human. To be noted: co-treatment with TGF-β1 in serum-free medium; EP2 agonist 100 nM, EP4 agonist 10 nM.
Description: FIGS. 1A-D show immunohistochemical staining of human adult skin fibroblasts treated with vehicle (FIG. 1A), transforming growth factor beta-1 (TGF-β1; FIG. 1B), TGF-β1+ prostaglandin receptor subtype-4 (EP4) agonist (FIG. 1C), or TGF-β1+ prostaglandin receptor subtype 2 (EP2) agonist (FIG. 1D). TGF-β1 induced transformation of myofibroblasts, which stained green with anti-alpha-smooth muscle actin (α-SMA) immunocytochemistry.
as §1
To perform the myofibroblast transformation assay, adult skin fibroblasts were cultured until 70% confluent, washed with PBS, and then starved in serum-free medium for 48 hrs. Post starvation, cells were treated with TGF-beta1 at 2 ng/ml alone or in combination with Compound III—100 nM, Compound I—10 nM or vehicle for 96 hrs in a fresh serum-free medium (TGF-β1 from Sigma Aldrich, USA). Cell lysates were collected at the end of the study and Western blot was performed to monitor the expression of alpha-smooth muscle actin (α-SMA), the marker of myofibroblasts.
Normal skin fibroblasts are slim and spindle-shaped without detectable α-SMA (marker of myofibroblasts), 6 days post culturing in a serum-free medium (FIGS. 1-2).

In the case of `O=C(O)CCCCCCN1C(=O)CC[C@@H]1/C=C/C(O)Cc1ccccc1` (stereo partly drawn) [Compound III], in the assay with adult skin fibroblasts [1], the “reduction of TGF-β1-induced α-SMA expression (Western blot)” value is “approximately 50%”. Moreover, in the assay on adult skin fibroblasts [2], the “cell size (TGF-β1-induced increase)” value was “but not cell size” and the “α-SMA positive stress fibers” value is “significantly reduced”.

For `CC1(C)C(=O)[C@H](C/C=C\CCCC(=O)O)[C@@H](/C=C/[C@H](O)CCc2sc3ccccc3c2Cl)[C@@H]1O` [Compound I], the “reduction of TGF-β1-induced α-SMA expression (Western blot)” value with adult skin fibroblasts [1] was about 75%. In addition, in the assay on adult skin fibroblasts [2], the “cell size (TGF-β1-induced increase)” value is listed as “but not cell size” and the “α-SMA positive stress fibers” value is “significantly reduced”.

The values above are taken from patent publication US20120046332A1, “COMPOSITIONS AND METHODS FOR TREATING CORNEAL HAZE” (ALLERGAN, INC., priority 2010, published 2012).
